Results: ChEMBL document CHEMBL4421734, “Means and methods for treatment of early-onset parkinson''s disease” (2016)
The source made the active and inactive calls. No cut-off for these calls is given here.

Tests used:
[1] = target: 3-oxoacyl-[acyl-carrier-protein] reductase (Drosophila melanogaster) (UniProt B7Z001); test: Inhibition of FASN in one day old PINK1 mutant containing Drosophila melanogaster assessed as rescue of defective flight at 0.1 to 300 uM dosed with food incubated for 72 hrs; format: organism-based
Chain of 3-oxoacyl-[acyl-carrier-protein] reductase (Drosophila melanogaster) (B7Z001 as listed by the source): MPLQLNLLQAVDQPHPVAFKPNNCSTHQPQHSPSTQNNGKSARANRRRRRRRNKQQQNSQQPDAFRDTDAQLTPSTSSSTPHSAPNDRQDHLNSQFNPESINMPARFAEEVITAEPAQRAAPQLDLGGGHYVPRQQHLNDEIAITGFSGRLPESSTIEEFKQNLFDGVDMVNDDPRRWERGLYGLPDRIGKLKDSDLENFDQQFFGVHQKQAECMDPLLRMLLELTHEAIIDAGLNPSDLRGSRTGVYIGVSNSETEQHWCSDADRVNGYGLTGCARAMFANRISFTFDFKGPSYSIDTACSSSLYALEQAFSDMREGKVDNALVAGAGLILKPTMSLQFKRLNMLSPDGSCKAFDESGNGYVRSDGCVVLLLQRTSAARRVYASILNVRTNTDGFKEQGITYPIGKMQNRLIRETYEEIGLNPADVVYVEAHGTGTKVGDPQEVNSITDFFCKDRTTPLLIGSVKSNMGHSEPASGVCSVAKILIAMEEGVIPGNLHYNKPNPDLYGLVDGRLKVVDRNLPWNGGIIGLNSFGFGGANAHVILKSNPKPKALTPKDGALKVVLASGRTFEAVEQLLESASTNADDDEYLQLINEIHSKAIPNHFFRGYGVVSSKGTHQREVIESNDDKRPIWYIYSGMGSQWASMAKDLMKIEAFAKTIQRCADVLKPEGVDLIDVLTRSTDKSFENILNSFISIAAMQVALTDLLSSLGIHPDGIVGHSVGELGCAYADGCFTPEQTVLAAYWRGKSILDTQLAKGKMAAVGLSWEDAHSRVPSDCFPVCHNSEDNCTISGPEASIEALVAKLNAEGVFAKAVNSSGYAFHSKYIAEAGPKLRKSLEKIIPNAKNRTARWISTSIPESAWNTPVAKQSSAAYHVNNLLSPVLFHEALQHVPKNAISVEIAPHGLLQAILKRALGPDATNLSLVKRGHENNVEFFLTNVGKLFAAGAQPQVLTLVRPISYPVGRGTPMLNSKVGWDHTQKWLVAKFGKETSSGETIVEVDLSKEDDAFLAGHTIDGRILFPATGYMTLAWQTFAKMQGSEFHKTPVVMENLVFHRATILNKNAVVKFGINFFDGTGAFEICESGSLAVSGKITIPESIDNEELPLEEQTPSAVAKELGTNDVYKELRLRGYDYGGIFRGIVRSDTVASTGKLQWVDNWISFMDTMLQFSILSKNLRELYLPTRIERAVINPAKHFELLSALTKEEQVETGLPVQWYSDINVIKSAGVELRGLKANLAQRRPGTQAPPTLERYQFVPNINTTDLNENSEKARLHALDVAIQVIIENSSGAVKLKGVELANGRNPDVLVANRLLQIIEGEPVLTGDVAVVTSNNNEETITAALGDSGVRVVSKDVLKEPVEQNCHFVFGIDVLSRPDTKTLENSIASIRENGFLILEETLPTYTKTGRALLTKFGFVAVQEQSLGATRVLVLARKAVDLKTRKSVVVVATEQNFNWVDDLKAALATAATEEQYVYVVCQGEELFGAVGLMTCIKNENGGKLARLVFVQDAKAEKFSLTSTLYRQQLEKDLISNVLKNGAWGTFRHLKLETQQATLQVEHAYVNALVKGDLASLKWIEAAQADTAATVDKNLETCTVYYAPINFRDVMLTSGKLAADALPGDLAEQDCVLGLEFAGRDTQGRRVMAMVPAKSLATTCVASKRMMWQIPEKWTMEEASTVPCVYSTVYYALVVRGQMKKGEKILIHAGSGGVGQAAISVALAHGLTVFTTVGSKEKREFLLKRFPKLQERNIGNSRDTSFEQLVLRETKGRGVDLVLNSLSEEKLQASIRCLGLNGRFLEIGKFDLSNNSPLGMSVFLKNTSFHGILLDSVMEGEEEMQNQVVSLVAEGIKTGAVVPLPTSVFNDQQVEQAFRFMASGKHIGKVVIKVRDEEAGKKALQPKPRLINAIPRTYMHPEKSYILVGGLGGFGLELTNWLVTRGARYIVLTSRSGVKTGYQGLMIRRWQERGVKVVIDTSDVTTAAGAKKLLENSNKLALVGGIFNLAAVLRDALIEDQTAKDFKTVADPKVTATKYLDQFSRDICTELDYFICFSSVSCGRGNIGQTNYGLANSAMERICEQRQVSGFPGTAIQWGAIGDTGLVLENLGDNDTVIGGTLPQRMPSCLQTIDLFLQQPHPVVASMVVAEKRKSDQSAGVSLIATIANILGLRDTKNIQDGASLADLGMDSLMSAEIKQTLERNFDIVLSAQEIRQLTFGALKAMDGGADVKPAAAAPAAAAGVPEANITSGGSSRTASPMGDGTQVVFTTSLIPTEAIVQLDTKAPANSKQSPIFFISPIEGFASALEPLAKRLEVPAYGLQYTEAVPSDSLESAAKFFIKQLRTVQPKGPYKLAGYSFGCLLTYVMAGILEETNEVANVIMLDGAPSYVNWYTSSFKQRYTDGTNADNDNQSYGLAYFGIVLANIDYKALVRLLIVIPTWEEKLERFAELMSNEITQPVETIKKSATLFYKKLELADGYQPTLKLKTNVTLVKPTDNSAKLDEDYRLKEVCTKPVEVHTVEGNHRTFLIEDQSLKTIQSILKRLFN

[2] = target: 3-oxoacyl-[acyl-carrier-protein] reductase (Drosophila melanogaster) (UniProt B7Z001); test: Inhibition of FASN in one day old PINK1 mutant containing Drosophila melanogaster assessed as rescue of defective flight at 100 to 300 uM dosed with food incubated for 72 hrs; format: organism-based
[3] = target: Fatty acid synthase (Mus musculus) (UniProt P19096); test: Inhibition of FASN in PINK1 (-/-) MEF assessed as rescue of mitochondrial dysfunction by measuring ATP levels by luminometry; format: cell-based
Chain of Fatty acid synthase (Mus musculus) (P19096 whole entry): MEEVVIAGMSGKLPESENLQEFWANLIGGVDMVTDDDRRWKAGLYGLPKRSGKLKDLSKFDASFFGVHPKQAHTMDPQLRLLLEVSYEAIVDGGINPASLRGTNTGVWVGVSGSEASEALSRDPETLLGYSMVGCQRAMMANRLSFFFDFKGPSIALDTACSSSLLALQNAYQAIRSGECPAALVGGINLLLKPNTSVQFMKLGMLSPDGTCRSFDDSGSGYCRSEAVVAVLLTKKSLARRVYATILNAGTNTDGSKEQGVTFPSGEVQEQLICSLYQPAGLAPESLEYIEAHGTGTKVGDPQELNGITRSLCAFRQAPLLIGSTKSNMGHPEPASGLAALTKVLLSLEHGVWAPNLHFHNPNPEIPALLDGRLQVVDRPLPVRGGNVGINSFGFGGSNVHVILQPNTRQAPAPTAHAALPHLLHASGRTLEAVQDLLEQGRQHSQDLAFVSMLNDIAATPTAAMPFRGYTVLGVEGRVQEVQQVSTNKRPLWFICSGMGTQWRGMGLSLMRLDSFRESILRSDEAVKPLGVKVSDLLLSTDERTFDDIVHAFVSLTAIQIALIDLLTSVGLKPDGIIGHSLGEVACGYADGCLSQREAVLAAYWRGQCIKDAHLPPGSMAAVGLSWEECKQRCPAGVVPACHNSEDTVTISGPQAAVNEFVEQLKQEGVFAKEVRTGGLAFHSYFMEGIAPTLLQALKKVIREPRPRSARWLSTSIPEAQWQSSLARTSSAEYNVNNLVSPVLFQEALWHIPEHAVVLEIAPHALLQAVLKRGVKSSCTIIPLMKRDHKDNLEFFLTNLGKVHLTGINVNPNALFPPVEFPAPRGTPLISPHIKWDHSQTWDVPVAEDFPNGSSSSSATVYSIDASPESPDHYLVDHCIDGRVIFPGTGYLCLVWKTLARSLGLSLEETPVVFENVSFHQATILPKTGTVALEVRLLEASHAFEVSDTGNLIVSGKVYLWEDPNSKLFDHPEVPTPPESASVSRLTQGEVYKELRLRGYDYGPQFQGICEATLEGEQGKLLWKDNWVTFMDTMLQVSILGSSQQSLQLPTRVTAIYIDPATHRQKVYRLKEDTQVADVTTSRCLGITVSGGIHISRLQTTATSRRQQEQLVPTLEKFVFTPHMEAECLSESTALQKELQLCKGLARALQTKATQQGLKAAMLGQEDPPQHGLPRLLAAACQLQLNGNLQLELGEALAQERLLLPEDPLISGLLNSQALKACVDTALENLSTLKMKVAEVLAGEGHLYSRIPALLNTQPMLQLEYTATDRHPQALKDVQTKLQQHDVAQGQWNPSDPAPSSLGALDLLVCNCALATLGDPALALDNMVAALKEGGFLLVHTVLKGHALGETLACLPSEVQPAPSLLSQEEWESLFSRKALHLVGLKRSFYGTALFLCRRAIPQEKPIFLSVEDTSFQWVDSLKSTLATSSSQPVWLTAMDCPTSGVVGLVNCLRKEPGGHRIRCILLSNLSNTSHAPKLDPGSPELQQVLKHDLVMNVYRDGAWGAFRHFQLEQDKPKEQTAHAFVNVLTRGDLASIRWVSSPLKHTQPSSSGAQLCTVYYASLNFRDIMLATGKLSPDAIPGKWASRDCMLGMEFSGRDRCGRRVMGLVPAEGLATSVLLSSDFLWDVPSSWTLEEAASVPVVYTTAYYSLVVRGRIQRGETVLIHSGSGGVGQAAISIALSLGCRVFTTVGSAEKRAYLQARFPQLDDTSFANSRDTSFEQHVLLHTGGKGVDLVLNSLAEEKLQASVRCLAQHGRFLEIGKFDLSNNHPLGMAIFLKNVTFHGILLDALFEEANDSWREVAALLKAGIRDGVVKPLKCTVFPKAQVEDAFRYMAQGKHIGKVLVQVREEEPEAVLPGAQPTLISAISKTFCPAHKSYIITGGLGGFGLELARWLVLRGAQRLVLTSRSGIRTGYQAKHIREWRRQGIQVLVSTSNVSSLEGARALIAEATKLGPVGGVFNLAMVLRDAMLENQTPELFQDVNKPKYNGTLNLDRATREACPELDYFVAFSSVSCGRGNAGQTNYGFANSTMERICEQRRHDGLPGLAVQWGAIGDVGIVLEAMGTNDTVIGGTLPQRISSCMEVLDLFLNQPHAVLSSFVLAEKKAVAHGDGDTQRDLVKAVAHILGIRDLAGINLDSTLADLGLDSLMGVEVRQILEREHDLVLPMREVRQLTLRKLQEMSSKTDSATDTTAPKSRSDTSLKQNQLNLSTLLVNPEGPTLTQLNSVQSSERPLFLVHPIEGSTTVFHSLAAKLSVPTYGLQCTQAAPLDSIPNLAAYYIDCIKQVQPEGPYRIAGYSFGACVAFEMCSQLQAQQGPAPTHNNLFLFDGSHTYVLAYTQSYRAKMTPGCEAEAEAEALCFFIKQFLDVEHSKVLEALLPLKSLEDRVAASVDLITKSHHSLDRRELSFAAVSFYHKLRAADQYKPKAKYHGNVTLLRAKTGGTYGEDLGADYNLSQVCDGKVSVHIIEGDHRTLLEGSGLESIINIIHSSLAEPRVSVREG

With `Oc1cc(Cl)ccc1Oc1ccc(Cl)cc1Cl` the inhibition [1] was “Dose-dependent effect”.

For `C/C=C/C/C=C/CCC(=O)[C@H]1O[C@H]1C(N)=O`, the inhibition [2] was “Dose-dependent effect” and the inhibition [3] was “Active”.
